Assay [1] in a line: Transport activity of VP22 sub-sequences. As to conditions: sub-sequences of full HSV1 VP22 sequence (1-301). It is filed as cell-based.
A further assay relates to Cos-1 cells. Briefly: Delivery by intercellular trafficking, immunofluorescence of transfected Cos-1 cell monolayers. As to conditions: transfected Cos-1 cells, 48 h, methanol-fixed, anti-VP22/-p53/-epitope immunofluorescence. It is filed as cell-based. The protocol: Cos-1 cells were grown in Dulbecco's modified MEM supplemented with 10% new born calf serum at 37° C. with 5% CO2.
Transfections were performed using the BES/CaCl2 method (Elliott and O'Hare, 1997) with 200 ng test plasmid with 1800 ng pUB19. Transfections were allowed to proceed for 48 h at which point the monolayers were harvested for immunofluorescence or western blot analysis.
Cell monolayers on coverslips were fixed with 100% methanol for 15 mins at room temperature and labelled as described in Elliott and O'Hare (1997). All antibodies were diluted in PBS+10% serum. VP22 was detected using a rabbit polyclonal antibody AGV30 (1:500), p53 was detected using a mouse monoclonal antibody DO-1 (Santa-Cruz Ltd), the CMV epitope was detected using a mouse monoclonal antibody CMV. LNA (Capricorn Ltd). Images were obtained using a Bio-Rad MRC600 confocal microscope.
The VP22-p53 fusion protein construct was generated by cloning a full length p53 PCR fragment C-terminal to VP22 into a unique Bam site, keeping both VP22 and the CMV epitope in frame.
We constructed an epitope-tagged full length in-frame VP22-p53 fusion protein construct (FIG. 2). This vector generates a fusion protein of approx 90 kDa when expressed in Cos-1 cells, with very little protein degradation as judged by western blot analysis (FIG. 3). […]

As for “aa 60-301: polypeptide corresponding to aminoacids 60-301 of the full HSV1 VP22 sequence (1-301)”, the transport activity result in assay [1] is “transport activity is present”.
Consider “deletion of the 34-aminoacid C-terminal sequence from VP22 of HSV1: VP22 of HSV1 lacking its 34-aminoacid C-terminal sequence”, for which the transport activity entry in assay [1] is reported as “abolishes transport-activity”.
With “VP22: HSV-1 virion protein VP22, 38 kDa, with intercellular trafficking mechanism”, the “delivery by intercellular trafficking (spread into nuclei of neighbouring non-expressing cells)” value in the assay with Cos-1 cells is “clear spread to the nuclei of adjacent cells”.
On to “aa 175-301: polypeptide consisting of aa 175-301 of the VP22 sequence”, for which, in assay [1], the transport activity entry is “markedly less transport activity”.
Same read-out and setting: with “aa 159-301: polypeptide corresponding to aminoacids 159-301 of the full HSV1 VP22 sequence (1-301)” the entry was “transport activity is present”.

Values taken from patent US20040197346A1, “Materials and methods for intracellular transport and their uses” (Marie Curie Cancer Care, priority 1997, published 2004).
